In the CheMixHub viscosity set:

Assay: xn = mol fraction of the nth substance listed

CCCCCCCCO + c1ccccc1
viscosity [mPa·s]
Conditions | 293.15 K | 298.15 K | 303.15 K | 313.15 K | 323.15 K
100 kPa, x2 = 0.0834 | 7.415 | – | 5.248 | 3.685 | 2.768
100 kPa, x2 = 0.1711 | 6.045 | – | 4.294 | 2.932 | 2.235
100 kPa, x2 = 0.2512 | 5.033 | – | 3.532 | 2.393 | 1.821
100 kPa, x2 = 0.3602 | 3.894 | – | 2.682 | 1.807 | 1.365
100 kPa, x2 = 0.4552 | 3.069 | – | 2.085 | 1.4 | 1.062
100 kPa, x2 = 0.5612 | 2.333 | – | 1.545 | 1.076 | 0.818
100 kPa, x2 = 0.6483 | 1.824 | – | 1.236 | 0.904 | 0.7
100 kPa, x2 = 0.7524 | 1.334 | – | 0.957 | 0.736 | 0.594
100 kPa, x2 = 0.8537 | 0.975 | – | 0.736 | 0.608 | 0.516
100 kPa, x2 = 0.9502 | 0.748 | – | 0.612 | 0.525 | 0.455
101.33 kPa, x1 = 0.2 | – | 0.863 | – | – | 0.57

CCCCCCCCO + Cc1ccccc1
viscosity [mPa·s], 101 kPa
Conditions | 298.15 K | 308.15 K
x2 = 0.0495 | 6.43 | 4.918
x2 = 0.1104 | 5.45 | 4.28
x2 = 0.1513 | 4.841 | 3.853
x2 = 0.1999 | 4.2 | 3.402
x2 = 0.2517 | 3.646 | 3.009
x2 = 0.2997 | 3.252 | 2.674
x2 = 0.356 | 2.717 | 2.317
x2 = 0.3998 | 2.395 | 2.048
x2 = 0.4506 | 2.092 | 1.825
x2 = 0.5001 | 1.84 | 1.637
x2 = 0.5513 | 1.598 | 1.42
x2 = 0.6014 | 1.404 | 1.272
x2 = 0.6495 | 1.244 | 1.119
x2 = 0.6997 | 1.098 | 1.015
x2 = 0.7569 | 0.96 | 0.87
x2 = 0.8012 | 0.859 | 0.779
x2 = 0.8527 | 0.769 | 0.699
x2 = 0.9 | 0.674 | 0.61
x2 = 0.954 | 0.612 | 0.554
